Results: ChEMBL document CHEMBL5052823, “Prc1 inhibitors and methods of treatment therewith” (2020)
Calls of active or inactive are those of the source. The calls are words filed in the database; no cut-off is given here.

Experiments:
M9-ENL1 [1] = experiment: Inhibition of colony formation in human M9-ENL1; type: functional, cell-based
Homo sapiens [2] = organism: Homo sapiens; experiment: Inhibition of RING1B-PCGF1 (unknown origin) activity at 0.4 to 25 uM relative to control; conditions: dose 0.4-25 µM
Homo sapiens [3] = organism: Homo sapiens; experiment: Inhibition of BRCA1-BARD1 (unknown origin) activity at 12.2 to 50 uM relative to control; conditions: dose 12.2-50 µM
Homo sapiens [4] = organism: Homo sapiens; experiment: Inhibition of RING1B-BMI1 (unknown origin) interaction with nucleosome at 0.8 to 12.5 uM measured by EMSA assay relative to control; conditions: dose 0.8-12.5 µM
M9-ENL1 [5] = experiment: Antitumour activity against human M9-ENL1 cells transplanted in mouse assessed as decrease in leukemia development; type: functional, cell-based
T cell = experiment: Inhibition of RING1B-BMI1 H2Aub activity in human TEX cells at 6 to 25 uM relative to control; type: cell-based; conditions: dose 6-25 µM
K562 [6] = experiment: Inhibition of RING1B-BMI1 H2Aub activity in human K562 cells at 6.2 to 25 uM relative to control; type: cell-based; conditions: dose 6.2-25 µM
T-cell line = experiment: Induction on human TEX cells differentiation assessed as reduction in CD34 surface expression at 6 to 25 uM relative to control; type: functional, cell-based; conditions: dose 6-25 µM
K562 [7] = experiment: Inhibition of PRC1 in human K562 cells; type: cell-based
M9-ENL1 [8] = experiment: Antitumour activity against human M9-ENL1 cells transplanted in mouse assessed as decrease in engraftment; type: functional, cell-based
Homo sapiens [9] = organism: Homo sapiens; experiment: Inhibition of TRIM37 (unknown origin) activity at 12.2 to 50 uM relative to control; conditions: dose 12.2-50 µM

Row | SMILES | inhibition (M9-ENL1 [1]) | inhibition (Homo sapiens [2]) | inhibition (Homo sapiens [3]) | inhibition (Homo sapiens [4]) | Activity (M9-ENL1 [5]) | inhibition (T cell) | inhibition (K562 [6]) | Activity (T-cell line) | inhibition (K562 [7]) | Activity (M9-ENL1 [8]) | inhibition (Homo sapiens [9])
1 | CC(C)c1c(-c2cccc3[nH]ccc23)[nH]c(C(=O)O)c1-c1c(Cl)ccc2[nH]ccc12 | Active | Active | inactive | Active | Active | Active | Active | Active | Active | Active | inactive
2 | CCc1c(-c2cccc3c2ccn3CCO)[nH]c(C(=O)O)c1-c1ccc(OC)cc1Cl | – | – | – | – | – | – | – | inactive | – | – | –
